{"source": "the supplement of paper PMC3493320"}
{"tested_on": "NCI-H295R", "test": "IC50 (antiproliferative, ATP content)", "conditions": "48 h", "procedure,_shortened": "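Serum-free ITS-supplemented DMEM was used to seed 1500 adrenocortical carcinoma cells per well in 1536-well plates, which were cultured overnight. Eight final concentrations of each library compound, from 0.6 nM to 46 µM, were added by pin transfer, followed by 48 h at 37 °C in 5% CO2 and a CellTiter-Glo ATP read after 20 min at room temperature. Luminescence was set against vehicle and positive-control wells, and the IC50 was obtained by logistic curve fitting. Any compound with no concentration response was entered as above the top dose.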", "units": {"IC50": "µM"}}
{"smiles": "COc1cc2c(cc1OC)[C@@H](Cc1cc(OC)c(OC)c(OC)c1)[N+](C)(CCCOC(=O)CC/C=C/CCC(=O)OCCC[N+]1(C)CCc3cc(OC)c(OC)cc3[C@H]1Cc1cc(OC)c(OC)c(OC)c1)CC2.[Cl-].[Cl-]", "note": "(stereo partly drawn)", "IC50": "> 46"}
{"smiles": "OC(=O)[C@@H](C(C)C)N(Cc1ccc(cc1)c2ccccc2C\\3=N\\N=N/N/3)C(=O)CCCC", "IC50": "> 46"}
{"smiles": "Cc1cc2cc3c(C)cc(=O)oc3c(C)c2o1", "IC50": "> 46"}
{"smiles": "Clc1ccccc1Cl", "IC50": "> 46"}
{"smiles": "Cc1c(C(C)C)c(=O)n(-c2ccccc2)n1C", "IC50": "> 46"}
{"smiles": "NNC(=O)CP(=O)(c1ccccc1)c1ccccc1", "IC50": "> 46"}
{"smiles": "CCN1CCc2nc(N)oc2CC1.Cl.Cl", "IC50": "> 46"}
{"smiles": "O.O=C(O)[C@@H]1[C@H]2C[C@H]3c4[nH]c5ccccc5c4CCN3C[C@@H]2CC[C@@H]1O", "IC50": "> 46"}
{"smiles": "[C@@]153[C@@H](\\C(O)=C(/C[C@@]1([C@H]2CC[C@]4([C@H]([C@@H]2CC3)CC[C@@H]4O)C)C)C#N)O5", "IC50": "> 46"}
{"smiles": "C=CC(=O)O", "IC50": "> 46"}
{"smiles": "O=[C@](NC5=CC(C(F)(F)F)=CC=C5C(F)(F)F)[C@@H]4[C@@]3(C)CC[C@]2([H])[C@@]1(C)C=CC(N[C@@]([H])1CC[C@]([H])2[C@@]([H])3CC4)=O", "IC50": "> 46"}
{"smiles": "COc1ccccc1N1CCN(CCCNc2cc(=O)n(C)c(=O)n2C)CC1.Cl", "IC50": "> 46"}
{"smiles": "CNC(=O)Oc1ccc2c(c1)[C@]1(C)CCN(C)[C@@H]1N2C", "IC50": "> 46"}
{"smiles": "F[C@]1([C@](C)2C=C3)[C@@H](O)C[C@@]([C@]([C@@](CO)=O)(O)[C@H]4C)(C)[C@](C4)([H])[C@@]([H])1CCC2=CC3=O", "IC50": "> 46"}
{"smiles": "CS(=O)(=O)O.CS(=O)(=O)O.N=C(N)c1ccc(/C=C/c2ccc(C(=N)N)cc2O)cc1", "IC50": "> 46"}
{"smiles": "CC1(C)CCC(C)(C)c2cc(NC(=O)c3ccc(C(=O)O)cc3)ccc21", "IC50": "> 46"}
{"smiles": "CS(=O)(=O)c1ccc(C2=C(c3ccccc3)C(=O)OC2)cc1", "IC50": "> 46"}
{"smiles": "CCCCC1(COC(=O)CCC(=O)O)C(=O)N(c2ccccc2)N(c2ccccc2)C1=O", "IC50": "> 46"}
{"smiles": "CC[N+](CC)(CC)CC.[Cl-]", "IC50": "> 46"}
{"smiles": "CC(C)(N)Cc1ccc(Cl)cc1.Cl", "IC50": "> 46"}
{"smiles": "O=C2N1[C@]([C@@]([H])2NC(CC3=CC=CC=C3)=O)([H])SC(C)(C)[C@@H]1[C@@](O)=O.O=C5N4[C@]([C@@]([H])5NC(CC6=CC=CC=C6)=O)([H])SC(C)(C)[C@@H]4[C@@](O)=O.C7(CNCCNCC8=CC=CC=C8)=CC=CC=C7", "IC50": "> 46"}
{"smiles": "NS(=O)(=O)c1ccc(NC(=O)CCC(=O)O)cc1", "IC50": "> 46"}
{"smiles": "CNc1c2c(nn1C)CCCC2", "IC50": "> 46"}
{"smiles": "O=C1C=C3[C@]([C@@]2(F)[C@@H](O)C[C@@]4(C)[C@](C[C@@]5([H])OC(C)(C)O[C@@]45[C@@](CO)=O)([H])[C@@]([H])2C[C@@H]3F)(C)C=C1", "IC50": "> 46"}
{"smiles": "CCCC(=O)Nc1ncnc2c1ncn2[C@@H]1O[C@@H]2COP(=O)(O)O[C@H]2[C@H]1OC(=O)CCC", "IC50": "> 46"}
{"smiles": "Cc1ccccc1C(OCCN(C)C)c1ccccc1.O=C(O)CC(O)(CC(=O)O)C(=O)O", "note": "(stereo not drawn)", "IC50": "> 46"}
{"smiles": "O=P1(NCCCl)OCCCN1CCCl", "note": "(stereo not drawn)", "IC50": "> 46"}
{"smiles": "OC(c1ccccc1)(c1ccccc1)C1CCNCC1", "IC50": "> 46"}
{"smiles": "Cc1ncc(CSSCc2cnc(C)c(O)c2CO)c(CO)c1O.Cl.Cl", "IC50": "> 46"}
{"smiles": "C[C@@H](O)[C@H]1C(=O)N2C(C(=O)O)=C(S[C@@H]3CN[C@H](CNS(N)(=O)=O)C3)[C@H](C)[C@H]12", "IC50": "> 46"}
{"smiles": "COC(=O)C(c1ccccc1)C1CCCCN1.Cl", "note": "(stereo not drawn)", "IC50": "> 46"}
{"smiles": "Cc1ccc(C(C)C)cc2c(C)ccc1-2", "IC50": "> 46"}
{"smiles": "[N-]=[N+]=CC(=O)OC[C@H](N)C(=O)O", "IC50": "> 46"}
{"smiles": "NC(=S)NS(=O)(=O)c1ccc(N)cc1", "IC50": "> 46"}
{"smiles": "O[C@H](C)[C@@H](N[C@]([C@@H]2C[C@@H](CCC)CN2C)=O)[C@@H]1[C@H](O)[C@H](O)[C@@H](O)[C@@H](SC)O1.Cl", "IC50": "> 46"}
{"smiles": "O=C2N1[C@]([C@@]([H])2NC(C(C(OC)=CC=C3)=C3OC)=O)([H])SC(C)(C)[C@@H]1[C@@]([O-])=O.[Na+].O", "IC50": "> 46"}
{"smiles": "NC/C=C/C(=O)O", "IC50": "> 46"}
{"smiles": "COc1ccc2c(=O)c(C)c(-c3ccccc3)oc2c1CN(C)C.Cl", "IC50": "> 46"}
{"smiles": "CCN(CC)CCNC(C(=O)OCCC(C)C)c1ccccc1", "note": "(stereo not drawn)", "IC50": "> 46"}
{"smiles": "O=S([C@](CN1C=CN=N1)(C)[C@H]([C@]([O-])=O)N2C3=O)([C@@]([H])2C3)=O.[Na+]", "IC50": "> 46"}
{"smiles": "CCC(=O)NCC[C@@H]1CCc2ccc3c(c21)CCO3", "IC50": "> 46"}
{"smiles": "N[C@@H](Cc1ccc(Oc2cc(I)c(O)c(I)c2)c(I)c1)C(=O)O", "IC50": "> 46"}
{"smiles": "CC(N)CCCC(C)(C)O.Cl", "note": "(stereo not drawn)", "IC50": "> 46"}
{"smiles": "ClC4=CC3=[C@@](C=C4O)[C@H]2C1=CC=CC=C1CC[C@@H]2N(C)CC3", "IC50": "> 46"}
{"smiles": "COc1ccc(C=NNC(=O)c2ccncc2)c(C(=O)O)c1OC", "IC50": "> 46"}
{"smiles": "O=C(O)c1nn(Cc2ccc(Cl)cc2Cl)c2ccccc12", "IC50": "> 46"}
{"smiles": "NC(=O)N1c2ccccc2CC(=O)c2ccccc21", "IC50": "> 46"}
{"smiles": "C[N+](C)(C)CCOC(=O)CCC(=O)OCC[N+](C)(C)C.[Cl-].[Cl-]", "IC50": "> 46"}
{"smiles": "CC(C(=O)O)c1ccc(CC2CCCC2=O)cc1", "note": "(stereo not drawn)", "IC50": "> 46"}
{"smiles": "CC(=O)OCC(=O)[C@@]1(O)[C@H](C)C[C@H]2[C@@H]3CCC4=CC(=O)C=C[C@]4(C)[C@@]3(F)[C@@H](O)C[C@@]21C", "IC50": "> 46"}
{"smiles": "CCOc1ccc2nc(S(N)(=O)=O)sc2c1", "IC50": "> 46"}
{"smiles": "[O-][n+]1cc[n+]([O-])c2ccccc21", "IC50": "> 46"}
{"smiles": "Cc1ccccc1-n1c(CF)nc2ccc(N)cc2c1=O", "IC50": "> 46"}
{"smiles": "COc1ccc(-c2cc(=S)ss2)cc1", "IC50": "> 46"}
{"smiles": "CCOC(C)=O", "IC50": "> 46"}
{"smiles": "C=C(C)[C@@H]1[C@H]2OC(=O)[C@@H]1[C@]1(O)C[C@H]3O[C@]34C(=O)O[C@H]2[C@]14C.CC(C)(O)[C@@H]1[C@H]2OC(=O)[C@@H]1[C@]1(O)C[C@H]3O[C@]34C(=O)O[C@H]2[C@]14C", "IC50": "> 46"}
{"smiles": "CN(C)c1ccc(O)c2c1C[C@H]1C[C@H]3[C@H](N(C)C)C(O)=C(C(N)=O)C(=O)[C@@]3(O)C(O)=C1C2=O.Cl", "IC50": "> 46"}
{"smiles": "CC[C@H]1OC(=O)[C@H](C)[C@@H](O[C@H]2C[C@@](C)(OC)[C@@H](O)[C@H](C)O2)[C@H](C)[C@@H](O[C@@H]2O[C@H](C)C[C@H](N(C)C)[C@H]2O)[C@](C)(O)C[C@@H](C)C(=O)[C@H](C)[C@@H](O)[C@]1(C)O", "IC50": "> 46"}
{"smiles": "O=C(C1CCCCC1)N1CC(=O)N2CCc3ccccc3C2C1", "note": "(stereo not drawn)", "IC50": "> 46"}
{"smiles": "CN[C@@H]1[C@H](O[C@H]2[C@H](O[C@H]3[C@H](O)[C@@H](O)[C@H](NC(=N)N)[C@@H](O)[C@@H]3NC(=N)N)O[C@@H](C)[C@]2(O)CO)O[C@@H](CO)[C@H](O)[C@H]1O.CN[C@@H]1[C@H](O[C@H]2[C@H](O[C@H]3[C@H](O)[C@@H](O)[C@H](NC(=N)N)[C@@H](O)[C@@H]3NC(=N)N)O[C@@H](C)[C@]2(O)CO)O[C@@H](CO)[C@H](O)[C@H]1O.O=S(=O)(O)O.O=S(=O)(O)O.O=S(=O)(O)O", "IC50": "> 46"}
{"smiles": "CCOC(=O)c1cccnc1", "IC50": "> 46"}
{"smiles": "Cc1ncc([N+](=O)[O-])n1CC(O)CCl", "note": "(stereo not drawn)", "IC50": "> 46"}
{"smiles": "O=C(N[C@@H](CO)C(N[C@H](C(N[C@H](COC(C)(C)C)C(N[C@@H](CC(C)C)C(N[C@@H](CCCNC(N)=N)C(N6[C@H]([C@@](NNC(N)=O)=O)CCC6)=O)=O)=O)=O)CC4=CC=C(O)C=C4)=O)[C@@H](NC([C@@H](N[C@@]([C@@H](N5)CCC5=O)=O)CC3=CNC=N3)=O)CC1=CNC2=C1C=CC=C2.O=C(C)O", "IC50": "> 46"}
{"smiles": "CC1=CCC2CC1C2(C)C", "note": "(stereo not drawn)", "IC50": "> 46"}
{"smiles": "Cl.Cl.O=C(O)COCCN1CCN(C(c2ccccc2)c2ccc(Cl)cc2)CC1", "note": "(stereo not drawn)", "IC50": "> 46"}
{"smiles": "CN1CCC[C@@H]1c1cccnc1", "IC50": "> 46"}
{"smiles": "O=C1CC[C@@]2(O)[C@H]3Cc4ccc(O)c5c4[C@@]2(CCN3CC2CC2)[C@H]1O5", "IC50": "> 46"}
{"smiles": "CCNC(=O)NCc1cccc(Cl)c1", "IC50": "> 46"}
{"smiles": "COc1ccc(C2CNC(=O)C2)cc1OC1CCCC1", "note": "(stereo not drawn)", "IC50": "> 46"}
{"smiles": "CCOC(=O)C1(c2ccccc2)CCN(CCC(C#N)(c2ccccc2)c2ccccc2)CC1.Cl", "IC50": "> 46"}
{"smiles": "Cl[C@]1([C@](C)2C=C3)[C@@H](O)C[C@@]([C@]([C@@](CO)=O)(O)[C@H]4C)(C)[C@](C4)([H])[C@@]([H])1CCC2=CC3=O", "IC50": "> 46"}
{"smiles": "Cl.F/C(COc1ccc2c(c1)[nH]c1ccccc12)=C1\\CN2CCC1CC2", "IC50": "> 46"}
{"smiles": "CO/N=C(\\C(=O)N[C@@H]1C(=O)N2C(C(=O)O)=C(CSc3nnnn3C)CS[C@H]12)c1csc(N)n1.CO/N=C(\\C(=O)N[C@@H]1C(=O)N2C(C(=O)O)=C(CSc3nnnn3C)CS[C@H]12)c1csc(N)n1.Cl", "IC50": "> 46"}
{"smiles": "NC(=O)CN1CCCC1=O", "IC50": "> 46"}
{"smiles": "CC(C)CCCC(C)N", "note": "(stereo not drawn)", "IC50": "> 46"}
{"smiles": "Cc1ncc(COP(=O)(O)O)c(CN)c1O", "IC50": "> 46"}
{"smiles": "CO[C@]12C[C@@H](COC(=O)c3cncc(Br)c3)CN(C)[C@@H]1Cc1cn(C)c3cccc2c13", "IC50": "> 46"}
{"smiles": "O[C@@H]([C@H](C)NC)[C@@]1=CC=CC=C1.Cl", "IC50": "> 46"}
{"smiles": "O=C(CCCN1CCC(O)(c2ccc(Cl)cc2)CC1)c1ccc(F)cc1", "IC50": "> 46"}
{"smiles": "O=C(CCCN1CC=C(n2c(=O)[nH]c3ccccc32)CC1)c1ccc(F)cc1", "IC50": "> 46"}
{"smiles": "CO[C@H]1O[C@@H]2O[C@@]3(C)CC[C@H]4[C@H](C)CC[C@@H]([C@H]1C)[C@@]24OO3", "IC50": "> 46"}
{"smiles": "O=c1cc(O)c(Cl)c[nH]1", "IC50": "> 46"}
{"smiles": "COc1ccc(C(=O)N2CCCC2=O)cc1", "IC50": "> 46"}
{"smiles": "CCn1cc(C(=O)O)c(=O)c2cc3c(cc21)OCO3", "IC50": "> 46"}
{"smiles": "C=O", "IC50": "> 46"}
{"smiles": "Oc1c(Br)cc(Br)cc1Br", "IC50": "> 46"}
{"smiles": "Cl.O=C(OCCN1CCCCC1)C(O)(c1ccccc1)c1ccccc1", "IC50": "> 46"}
{"smiles": "Cl.OC(CCN1CCCCC1)(c1ccccc1)C1CC2C=CC1C2", "note": "(stereo not drawn)", "IC50": "> 46"}
